From US9765070B2, “Substituted oxopyridine derivatives” (Bayer Pharma Aktiengesellschaft, priority 2013, dated 2017) come the findings set out here.

SMILES strings stand for the structures.

human plasma kallikrein, sequence (P03952 391-638): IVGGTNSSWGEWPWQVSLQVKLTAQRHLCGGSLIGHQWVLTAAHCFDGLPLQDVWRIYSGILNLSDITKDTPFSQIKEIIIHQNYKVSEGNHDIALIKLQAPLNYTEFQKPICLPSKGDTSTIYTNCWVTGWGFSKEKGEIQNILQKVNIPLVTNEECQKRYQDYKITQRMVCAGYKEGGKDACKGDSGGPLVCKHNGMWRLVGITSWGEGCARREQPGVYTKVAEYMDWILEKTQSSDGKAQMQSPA
human plasma kallikrein, sequence (P03952 20-390 partner): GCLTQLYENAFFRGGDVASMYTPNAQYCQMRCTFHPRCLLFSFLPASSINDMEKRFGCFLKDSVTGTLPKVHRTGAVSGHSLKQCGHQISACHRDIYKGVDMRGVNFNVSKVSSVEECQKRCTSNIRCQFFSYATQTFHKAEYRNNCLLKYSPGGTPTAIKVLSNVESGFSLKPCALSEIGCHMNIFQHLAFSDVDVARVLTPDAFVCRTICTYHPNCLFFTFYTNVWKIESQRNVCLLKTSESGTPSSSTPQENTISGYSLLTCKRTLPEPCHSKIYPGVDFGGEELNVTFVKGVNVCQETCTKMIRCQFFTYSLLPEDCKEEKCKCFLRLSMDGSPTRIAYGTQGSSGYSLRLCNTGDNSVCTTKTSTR

The experiment deals with human plasma kallikrein (Homo sapiens (Human), UniProt P03952). Kind of experiment: Determination of the plasma kallikrein activity (fluorogenic substrate H-Pro-Phe-Arg-AMC). Type of experiment: biochemical. Particulars: plasma kallikrein from Kordia 0.6 nM, 15 min preincubation, 30 min at 22° C., fluorescence. The protocol:
a.5) Determination of the Plasma Kallikrein Activity
To determine the plasma kallikrein inhibition of the substances according to the invention, a biochemical test system is used which utilizes the reaction of a peptidic plasma kallikrein substrate to determine the enzymatic activity of human plasma kallikrein. Here, plasma kallikrein cleaves from the peptic plasma kallikrein substrate the C-terminal aminomethylcoumarin (AMC), the fluorescence of which is measured. The determinations are carried out in microtitre plates.
In each case 1 μl of the diluted substance solutions is placed into the wells of white microtitre plates from Greiner (384 wells). 20 μl of assay buffer (50 mM Tris/HCl pH 7.4; 100 mM sodium chloride solution; 5 mM of calcium chloride solution; 0.1% of bovine serum albumin) and 20 μl of plasma kallikrein from Kordia (0.6 nM in assay buffer) are then added successively. After 15 min of incubation, the enzyme reaction is started by addition of 20 μl of the substrate H-Pro-Phe-Arg-AMC dissolved in assay buffer (10 μM in assay buffer) from Bachem, the mixture is incubated at room temperature (22° C.) for 30 min and fluorescence is then measured (excitation: 360 nm, emission: 460 nm). The measured emissions of the test batches with test substance are compared to those of control batches without test substance (only dimethyl sulphoxide instead of test substance in dimethyl sulphoxide), and IC50 values are calculated from the concentration/activity relationships.
The compound `COc1cn(C(C[C@@H]2CCCCO2)C(=O)Nc2ccc3nc(C(=O)O)cn3c2)c(=O)cc1-c1cc(Cl)ccc1C#N` (mixture of isomers) [Example 9, 6-({2-[4-(5-Chloro-2-cyanophenyl)-5-methoxy-2-oxopyridin-1(2H)-yl]-3-[(2S)-tetrahydro-2H-pyran-2-yl]propanoyl}amino)imidazo[1,2-a]pyridine-2-carboxylic acid (mixture of enantiomerically pure diastereomers)] registered an IC50 of 4.8 nM. In the case of `CCC(C(=O)Nc1ccc2nc(C(=O)O)cn2c1)n1cc(OC)c(-c2cc(Cl)ccc2C#N)cc1=O` (racemic) [Example 2, 6-({2-[4-(5-Chloro-2-cyanophenyl)-5-methoxy-2-oxopyridin-1(2H)-yl]butanoyl}amino)imidazo[1,2-a]pyridine-2-carboxylic acid (racemate)] it was 16 nM; in that of `CCC(C(=O)Nc1ccn2cc(C(=O)O)nc2c1)n1cc(OC)c(-c2cc(Cl)ccc2C#N)cc1=O` (racemic) [Example 3, 7-({2-[4-(5-Chloro-2-cyanophenyl)-5-methoxy-2-oxopyridin-1(2H)-yl]butanoyl}amino)imidazo[1,2-a]pyridine-2-carboxylic acid (racemate)], 13 nM; in that of `CCC(C(=O)Nc1ccc2nccn2c1)n1cc(OC)c(-c2cc(Cl)ccc2C#N)cc1=O` (racemic) [Example 4, 2-[4-(5-Chloro-2-cyanophenyl)-5-methoxy-2-oxopyridin-1(2H)-yl]-N-(imidazo[1,2-a]pyridin-6-yl)butanamide (racemate)], 44 nM. In the case of `CCOC(=O)c1cnc2ccc(NC(=O)C(CCOC)n3cc(OC)c(-c4cc(Cl)ccc4C#N)cc3=O)cn12` (racemic) [Example 10, Ethyl 6-({2-[4-(5-chloro-2-cyanophenyl)-5-methoxy-2-oxopyridin-1(2H)-yl]-4-methoxybutanoyl}amino)imidazo[1,2-a]pyridine-3-carboxylate (racemate)], the midpoint of inhibition, the IC50, lay at 7 nM. In the case of `CCOC(=O)c1cn2ccc(NC(=O)C(CCOC)n3cc(OC)c(-c4cc(Cl)ccc4C#N)cc3=O)cc2n1` (racemic) [Example 11, Ethyl 7-({2-[4-(5-chloro-2-cyanophenyl)-5-methoxy-2-oxopyridin-1(2H)-yl]-4-methoxybutanoyl}amino)imidazo[1,2-a]pyridine-2-carboxylate (racemate)] it was 5 nM; in that of `COCCC(C(=O)Nc1ccn2cc(C(N)=O)nc2c1)n1cc(OC)c(-c2cc(Cl)ccc2C#N)cc1=O` (racemic) [Example 12, 7-({2-[4-(5-Chloro-2-cyanophenyl)-5-methoxy-2-oxopyridin-1(2H)-yl]-4-methoxybutanoyl}amino)imidazo[1,2-a]pyridine-2-carboxamide (racemate)], 4.9 nM. Next, `COCCC(C(=O)Nc1ccc2nccn2c1)n1cc(OC)c(-c2cc(Cl)ccc2C#N)cc1=O` (racemic) [Example 13, 2-[4-(5-Chloro-2-cyanophenyl)-5-methoxy-2-oxopyridin-1(2H)-yl]-N-(imidazo[1,2-a]pyridin-6-yl)-4-methoxybutanamide (racemate)]: 13 nM. Next, `COCCC(C(=O)Nc1ccc2nccn2c1)n1cc(Cl)c(-c2cc(Cl)ccc2C#N)cc1=O` (racemic) [Example 14, 2-[5-Chloro-4-(5-chloro-2-cyanophenyl)-2-oxopyridin-1(2H)-yl]-N-(imidazo[1,2-a]pyridin-6-yl)-4-methoxybutanamide (racemate)]: 65 nM. On to `COc1cn(C(CC2CCC2)C(=O)Nc2ccc3nccn3c2)c(=O)cc1-c1cc(Cl)ccc1C#N` (racemic) [Example 15, 2-[4-(5-Chloro-2-cyanophenyl)-5-methoxy-2-oxopyridin-1(2H)-yl]-3-cyclobutyl-N-(imidazo[1,2-a]pyridin-6-yl)propanamide (racemate)], for which the IC50 came out at 31 nM.

With `CCC(C(=O)Nc1ccc2ncc(Cl)n2c1)n1cc(OC)c(-c2cc(Cl)ccc2C#N)cc1=O` (racemic) [Example 17, 2-[4-(5-Chloro-2-cyanophenyl)-5-methoxy-2-oxopyridin-1(2H)-yl]-N-(3-chloroimidazo[1,2-a]pyridin-6-yl)butanamide (racemate)], 24 nM corresponded to half-maximal inhibition (IC50). `CCC(C(=O)Nc1ccc2nc(-c3ccc(F)cc3)cn2c1)n1cc(OC)c(-c2cc(Cl)ccc2C#N)cc1=O` (racemic) [Example 18, 2-[4-(5-Chloro-2-cyanophenyl)-5-methoxy-2-oxopyridin-1(2H)-yl]-N-[2-(4-fluorophenyl)-imidazo[1,2-a]pyridin-6-yl]butanamide (racemate)] returned an IC50 of 130 nM. In the case of `COCCC(C(=O)Nc1ccc2nc(-c3ccc(F)cc3)cn2c1)n1cc(OC)c(-c2cc(Cl)ccc2C#N)cc1=O` (racemic) [Example 19, 2-[4-(5-Chloro-2-cyanophenyl)-5-methoxy-2-oxopyridin-1(2H)-yl]-N-[2-(4-fluorophenyl)-imidazo[1,2-a]pyridin-6-yl]-4-methoxybutanamide (racemate)] it was 25 nM; in that of `CCC(C(=O)Nc1ccc2nncn2c1)n1cc(OC)c(-c2cc(Cl)ccc2C#N)cc1=O` (racemic) [Example 20, 2-[4-(5-Chloro-2-cyanophenyl)-5-methoxy-2-oxopyridin-1(2H)-yl]-N-([1,2,4]triazolo[4,3-a]pyridin-6-yl)butanamide (racemate)], 23 nM. Compound `COCCC(C(=O)Nc1ccc2nnc(C)n2c1)n1cc(OC)c(-c2cc(Cl)ccc2C#N)cc1=O` (racemic) [Example 22, 2-[4-(5-Chloro-2-cyanophenyl)-5-methoxy-2-oxopyridin-1(2H)-yl]-4-methoxy-N-(3-methyl[1,2,4]triazolo[4,3-a]pyridin-6-yl)butanamide (racemate)] had an IC50 of 8.3 nM. Next, `CCc1nnc2ccc(NC(=O)C(CCOC)n3cc(OC)c(-c4cc(Cl)ccc4C#N)cc3=O)cn12` (racemic) [Example 23, 2-[4-(5-Chloro-2-cyanophenyl)-5-methoxy-2-oxopyridin-1(2H)-yl]-4-methoxy-N-(3-ethyl[1,2,4]triazolo[4,3-a]pyridin-6-yl)butanamide (racemate)]: 13 nM; `CCCCc1nnc2ccc(NC(=O)C(CCOC)n3cc(OC)c(-c4cc(Cl)ccc4C#N)cc3=O)cn12` (racemic) [Example 24, N-(3-Butyl[1,2,4]triazolo[4,3-a]pyridin-6-yl)-2-[4-(5-chloro-2-cyanophenyl)-5-methoxy-2-oxopyridin-1(2H)-yl]-4-methoxybutanamide (racemate)]: 16 nM. In the case of `COCCC(C(=O)Nc1ccc2nnc(CN(C)C)n2c1)n1cc(OC)c(-c2cc(Cl)ccc2C#N)cc1=O` (racemic) [Example 25, 2-[4-(5-Chloro-2-cyanophenyl)-5-methoxy-2-oxopyridin-1(2H)-yl]-N-{3-[(dimethylamino)-methyl][1,2,4]triazolo[4,3-a]pyridin-6-yl}-4-methoxybutanamide (racemate)] it was 23 nM.

The compound `COCCC(C(=O)Nc1ccc2cncn2c1)n1cc(Cl)c(-c2cc(Cl)ccc2C#N)cc1=O` (racemic) [Example 27, 2-[5-Chloro-4-(5-chloro-2-cyanophenyl)-2-oxopyridin-1(2H)-yl]-N-(imidazo[1,5-a]pyridin-6-yl)-4-methoxybutanamide (racemate)] registered an IC50 of 50 nM. In the case of `COc1cn(C(Cc2ccccn2)C(=O)Nc2ccc3nccn3c2)c(=O)cc1-c1cc(Cl)ccc1C#N` (racemic) [Example 28, 2-[4-(5-Chloro-2-cyanophenyl)-5-methoxy-2-oxopyridin-1(2H)-yl]-N-(imidazo[1,2-a]pyridin-6-yl)-3-(pyridin-2-yl)propanamide (racemate)] it was 8.8 nM; in that of `COc1cn(C(Cc2cnco2)C(=O)Nc2ccc3nccn3c2)c(=O)cc1-c1cc(Cl)ccc1C#N` (racemic) [Example 29, 2-[4-(5-Chloro-2-cyanophenyl)-5-methoxy-2-oxopyridin-1(2H)-yl]-N-(imidazo[1,2-a]pyridin-6-yl)-3-(1,3-oxazol-5-yl)propanamide (racemate)], 11 nM; in that of `CCC(C(=O)Nc1ccn2nccc2c1)n1cc(OC)c(-c2cc(Cl)ccc2C#N)cc1=O` (racemic) [Example 34, 2-[4-(5-Chloro-2-cyanophenyl)-5-methoxy-2-oxopyridin-1(2H)-yl]-N-(pyrazolo[1,5-a]pyridin-5-yl)butanamide (racemate)], 17 nM.

As to `COCCC(C(=O)Nc1ccn2nccc2c1)n1cc(OC)c(-c2cc(Cl)ccc2C#N)cc1=O` (racemic) [Example 35, 2-[4-(5-Chloro-2-cyanophenyl)-5-methoxy-2-oxopyridin-1(2H)-yl]-4-methoxy-N-(pyrazolo[1,5-a]pyridin-5-yl)butanamide (racemate)], inhibition was half-maximal at 4.3 nM (IC50).

In turn, `CCC(C(=O)Nc1ccn2ncc(Cl)c2c1)n1cc(OC)c(-c2cc(Cl)ccc2C#N)cc1=O` (racemic) [Example 40, 2-[4-(5-Chloro-2-cyanophenyl)-5-methoxy-2-oxopyridin-1(2H)-yl]-N-(3-chloropyrazolo[1,5-a]pyridin-5-yl)butanamide (racemate)] had an IC50 of 51 nM. Next, `COCCC(C(=O)Nc1ccn2ncc(Cl)c2c1)n1cc(OC)c(-c2cc(Cl)ccc2C#N)cc1=O` (racemic) [Example 41, 2-[4-(5-Chloro-2-cyanophenyl)-5-methoxy-2-oxopyridin-1(2H)-yl]-N-(3-chloropyrazolo[1,5-a]pyridin-5-yl)-4-methoxybutanamide (racemate)]: 11 nM.
